Source: patent US11465965B2, “Double-headed protease inhibitor” (UBE INDUSTRIES, LTD., priority 2017, dated 2022)
Structures can show the parent of a compound that is named as a salt. Where two headings read alike, the source gives them in different places.

Columns and labels:
HFD-fed mouse = experiment: Fecal protein concentration-increasing test by single administration using HFD-fed mouse; assay type: in vivo; settings: 24 h, HFD-fed mice, vs vehicle group, read-out: Ratio for an increase of protein concentration in feces; for response vs control in vivo at 50 mg/kg: single oral dose 50 mg/kg
Source text: (Test Example 3): Fecal Protein Concentration-Increasing Test by Single Administration Using HFD-Fed Mouse
High fat diet-fed (HFD-fed) mice (D-12492 diet, male, ICR, 6 week old) were orally administered with a 0.5 W/V % methylcellulose suspension comprising each test compound (Compound administration group, 4 or 5 mice/group) or a 0.5 W/V % methylcellulose suspension (Compound non-administration group (Vehicle group), 5, 6, or 7 mice/group), and whole feces of the day were collected. Dried feces were dissolved into a 0.5N aqueous sodium hydroxide solution, followed by centrifugation at 3500 rpm. Then each protein concentration in the resulting supernatant was determined (Lowry method), and the ratio for an increase of protein concentration in feces was calculated by the following equation using the protein concentration in feces contained in 1 g of feces (mg/g feces). Ratio for an increase of protein concentration in feces−(average protein concentration in feces of Compound administration group)[…](average protein concentration in feces of Compound non-administration group)

[1] = biological target: T1, Human recombinant enteropeptidase (Homo sapiens, UniProt P98073); experiment: Human enteropeptidase inhibition test; assay type: biochemical; settings: read-out: Inhibition rate (enteropeptidase); for inhibition at 0.001 µM: compound concentration 1 nM
T1 construct: purchased BIO Vision Inc. 7529-50
T1 sequence (P98073 whole entry): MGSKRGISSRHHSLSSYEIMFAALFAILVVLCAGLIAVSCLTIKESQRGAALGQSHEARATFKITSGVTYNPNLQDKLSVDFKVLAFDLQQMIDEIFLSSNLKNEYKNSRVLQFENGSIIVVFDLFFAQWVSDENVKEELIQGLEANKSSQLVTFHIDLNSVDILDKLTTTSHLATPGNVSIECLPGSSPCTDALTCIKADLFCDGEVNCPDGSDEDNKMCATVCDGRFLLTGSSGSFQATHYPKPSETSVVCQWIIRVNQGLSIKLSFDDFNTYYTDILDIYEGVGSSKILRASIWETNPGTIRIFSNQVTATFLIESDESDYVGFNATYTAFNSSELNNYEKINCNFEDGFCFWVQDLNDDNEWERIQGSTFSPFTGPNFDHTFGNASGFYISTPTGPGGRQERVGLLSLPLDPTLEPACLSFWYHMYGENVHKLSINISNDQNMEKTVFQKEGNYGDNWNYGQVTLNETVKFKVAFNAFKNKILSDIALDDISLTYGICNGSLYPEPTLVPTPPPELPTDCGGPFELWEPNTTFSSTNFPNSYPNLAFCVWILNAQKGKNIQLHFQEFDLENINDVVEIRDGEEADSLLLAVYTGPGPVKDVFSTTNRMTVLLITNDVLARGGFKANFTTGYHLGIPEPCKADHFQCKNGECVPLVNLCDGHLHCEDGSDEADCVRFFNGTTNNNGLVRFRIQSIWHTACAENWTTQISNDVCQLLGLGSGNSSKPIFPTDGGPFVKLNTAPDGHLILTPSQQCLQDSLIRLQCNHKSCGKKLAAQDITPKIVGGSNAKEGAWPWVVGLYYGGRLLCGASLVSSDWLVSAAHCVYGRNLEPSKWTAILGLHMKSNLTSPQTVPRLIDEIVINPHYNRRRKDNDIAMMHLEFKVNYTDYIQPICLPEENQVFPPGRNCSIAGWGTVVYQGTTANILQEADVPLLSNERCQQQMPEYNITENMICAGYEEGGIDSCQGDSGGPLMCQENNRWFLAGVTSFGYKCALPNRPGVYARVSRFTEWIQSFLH
Outline: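 Recombinant human enteropeptidase in 50 mM tricine pH 8.0, 0.01% Tween 20, 10 mM CaCl2 cleaving 1.5 μM 5FAM/CPQ2-quenched peptide substrate (stock solution concentration). Fluorescence (ex 485/em 535 nm) read 20 min after enzyme addition; % inhibition versus no-compound and no-enzyme controls.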

DIO mouse = experiment: Anti-obesity effect test using DIO mouse; assay type: in vivo; settings: 336 h, DIO mice, vs vehicle group, read-out: Weight loss rate; for inhibition in vivo at 50 mg/kg: oral 50 mg/kg once daily for 2 weeks
Outline: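 Male C57BL-DIO mice on D-12492 diet, 26 to 28-week old, 5 or 6 per group; compound dosed orally once daily for 2 weeks as 0.5 W/V % methylcellulose suspension, vehicle group on suspension alone. Weight loss rate (%) = (1 − mean final-day weight of treated group / mean final-day weight of vehicle group) × 100.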

[2] = Rat pharmacokinetic (PK) test (plasma concentration after oral administration); settings: male, SD
Experimental: (§1) Each test compound was suspended in a 0.5 W/V % methylcellulose 400 solution to prepare a suspension, and the resulting suspension was orally administered to a male SD rat of 7 to 8-week old (weight: 180 to 250 g). After 0.25, 0.5, 1, 2, 4, 8, and 24 hour(s) of the administration of each test compound, blood (EDTA-added blood) was collected from jugular vein under isoflurane inhalation anesthesia. […] To the resulting blood plasma was added acetonitrile, a mixed solvent of acetonitrile and water (1:1 (V/V)), or a mixed solvent of acetonitrile and 0.1 M hydrochloric acid (1:1 (V/V)), then the resulting mixture was mixed at 750 rpm for 3 minutes in a shaker, and subjected to centrifugal separation at 3700 rpm for 2 minutes in a centrifuge to remove proteins. The resulting sample was subjected to LC (liquid chromatography)/MS (mass spectrometry) measurement under the following measurement conditions.
(§2) Each compound concentration in blood plasma at each time of blood collection was calculated according to the internal standard method, and, area under the plasma concentration vs. time curve (AUCall (Area Under Curve)) was calculated according to the trapezoidal method.
(§3) The LC and MS systems used in the present test are as follows.
(§4) LC: LC20 or LC30 HPLC system manufactured by Shimadzu Corporation
(§5) Column: Phenomenex Kinetex C18 (50×2.1 mm, 2.6 μm)
Column temperature: 40° C.
(§6) Mobile phase A: aqueous solution with 0.1% formic acid, Mobile phase B: 50% acetonitrile/methanol solution with 0.1% formic acid

[3] = biological target: T2, Human recombinant trypsin (Homo sapiens, UniProt P07477); experiment: Human trypsin inhibition test; assay type: biochemical; settings: 20 minutes after reaction start, read-out: Inhibition rate (trypsin); for inhibition at 0.001 µM: compound concentration 1 nM; for inhibition at 0.01 µM: compound concentration 10 nM; for inhibition at 0.1 µM: compound concentration 100 nM
T2 construct: purchased Wako Pure Chemical Industries, Ltd. 206-17171
Outline: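 Trypsin diluted to 10 ng/mL in 0.1 M Tris-HCl pH8.0, 0.15 M NaCl, 10 mM CaCl2, 0.05% Brij35; substrate solution 40 μM Boc-Phe-Ser-Arg-MCA, compounds in 1% DMSO buffer. Fluorescence (ex 355/em 460 nm) read 20 min after enzyme addition; % inhibition versus no-compound and no-enzyme controls.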

in vivo = settings: male, SD, rat, po, 10 mg/kg
Experimental: as §1, §2, §3, §4, §5
Column temperature: 40° C.
as §6

[4] = 20 minutes after reaction start
[5] = compound concentration 10 nM, 20 minutes after reaction start
[6] = compound concentration 100 nM, 20 minutes after reaction start

| SMILES | inhibition at 0.001 µM [1, 4] | inhibition at 0.01 µM [1, 5] | inhibition at 0.1 µM [1, 6] | inhibition at 0.001 µM [3] | inhibition at 0.01 µM [3] | inhibition at 0.1 µM [3] | AUC ([2]; 10 mg/kg) | response vs control in vivo at 50 mg/kg (HFD-fed mouse) | inhibition in vivo at 50 mg/kg (DIO mouse) | other results |
| --- | --- | --- | --- | --- | --- | --- | --- | --- | --- | --- |
| N=C(N)Nc1ccc(C(=O)Oc2ccc(CNS(=O)(=O)N(CCOCCN([C@@H](CC(=O)O)C(=O)O)S(=O)(=O)NCc3ccc(OC(=O)c4ccc(NC(=N)N)cc4)cc3)[C@@H](CC(=O)O)C(=O)O)cc2)cc1 [1-(b), (2S,2′S)-2,2′-((oxybis(ethane-2,1-diyl))bis((N-(4-((4-guanidinobenzoyl)oxy)benzyl)sulfamoyl)azanediyl))disuccinic acid] | ≥ 50% | ≥ 50% | ≥ 50% | ≥ 50% | ≥ 50% | ≥ 50% |  |  |  | response vs control in vivo at 87 mg/kg (HFD-fed mouse; single oral dose 87 mg/kg): ≥ 130%; inhibition in vivo at 30 mg/kg (DIO mouse; oral 30 mg/kg once daily for 2 weeks): ≥ 4%; AUC ([2]; 100 mg/kg): ≤ 100 ng·h/mL |
| N=C(N)Nc1ccc(C(=O)Oc2ccc(CNS(=O)(=O)N(CCOCCOCCOCCOCCN([C@@H](CC(=O)O)C(=O)O)S(=O)(=O)NCc3ccc(OC(=O)c4ccc(NC(=N)N)cc4)cc3)[C@@H](CC(=O)O)C(=O)O)cc2)cc1 [4-(b), (2S,19S)-3,18-bis(N-(4-((4-guanidinobenzoyl)oxy)benzyl)sulfamoyl)-6,9,12,15-tetraoxa-3,18-diazaicosane-1,2,19,20-tetracarboxylic acid trifluoroacetate] |  | ≥ 50% | ≥ 50% |  | ≥ 50% | ≥ 50% | ≤ 100 ng·h/mL |  |  | response vs control in vivo at 100 mg/kg (HFD-fed mouse; single oral dose 100 mg/kg): ≥ 130%; inhibition in vivo at 86 mg/kg (DIO mouse; oral 86 mg/kg once daily for 2 weeks): ≥ 4% |
| N=C(N)Nc1ccc(C(=O)Oc2ccc(CNS(=O)(=O)N(CCCN([C@@H](CC(=O)O)C(=O)O)S(=O)(=O)NCc3ccc(OC(=O)c4ccc(NC(=N)N)cc4)cc3)[C@@H](CC(=O)O)C(=O)O)cc2)cc1 [7-(b), (2S,2′)-2,2′-propane-1,3-diylbis((N-(4-((4-guanidinobenzoyl)oxy)benzyl)sulfamoyl)azanediyl)disuccinic acid] | ≥ 50% | ≥ 50% | ≥ 50% | ≥ 50% | ≥ 50% | ≥ 50% | ≤ 100 ng·h/mL |  |  | response vs control in vivo at 30 mg/kg (HFD-fed mouse; single oral dose 30 mg/kg): ≥ 130%; inhibition in vivo at 100 mg/kg (DIO mouse; oral 100 mg/kg once daily for 2 weeks): ≥ 4% |
| N=C(N)Nc1ccc(C(=O)Oc2ccc(COC(=O)N(CCOCCOCCOCCOCCN(C(=O)OCc3ccc(OC(=O)c4ccc(NC(=N)N)cc4)cc3)C(CC(=O)O)C(=O)O)C(CC(=O)O)C(=O)O)cc2)cc1 (stereo not shown) [10-(b), 3,18-bis(((4-((4-guanidinobenzoyl)oxy)benzyl)oxy)carbonyl)-6,9,12,15-tetraoxa-3,18-diazaicosane-1,2,19,20-tetracarboxylic acid trifluoroacetate] |  | ≥ 50% | ≥ 50% |  | ≥ 50% | ≥ 50% |  |  |  | response vs control in vivo at 79 mg/kg (HFD-fed mouse; single oral dose 79 mg/kg): ≥ 130%; inhibition in vivo at 87 mg/kg (DIO mouse; oral 87 mg/kg once daily for 2 weeks): ≥ 4%; AUC ([2]; 8 mg/kg): ≤ 100 ng·h/mL |
| N=C(N)Nc1ccc(C(=O)Oc2ccc(COC(=O)N(Cc3cccc(C(=O)NCCOCCOCCOCCOCCNC(=O)c4cccc(CN(C(=O)OCc5ccc(OC(=O)c6ccc(NC(=N)N)cc6)cc5)[C@@H](CC(=O)O)C(=O)O)c4)c3)[C@@H](CC(=O)O)C(=O)O)cc2)cc1 [17-(b), (2S,2′S)-2,2′-(((5,8,11,14-tetraoxa-2,17-diazaoctadecane-1,18-dioyl)bis(3,1-phenylene))bis(methylene))bis((((4-((4-guanidinobenzoyloxy)benzyloxycarbonyl)azanediyl))disuccinic acid trifluoroacetate] |  |  |  | ≥ 50% | ≥ 50% | ≥ 50% |  |  |  | response vs control in vivo at 91 mg/kg (HFD-fed mouse; single oral dose 91 mg/kg): ≥ 130%; inhibition at 0.01 µM [1]: ≥ 50%; inhibition at 0.1 µM [1]: ≥ 50%; inhibition in vivo at 88 mg/kg (DIO mouse; oral 88 mg/kg once daily for 2 weeks): ≥ 4%; AUC ([2]; 9 mg/kg): ≤ 100 ng·h/mL |
| Cl.N=C(N)Nc1ccc2c(c1)CCCOc1c(cccc1C(=O)N(CCOCCOCCN(C(=O)c1cccc3c1OCCCc1cc(NC(=N)N)ccc1C(=O)O3)[C@@H](CC(=O)O)C(=O)O)[C@@H](CC(=O)O)C(=O)O)OC2=O [20-(c), (2S,13S)-3,12-bis(10-guanidino-13-oxo-6,7,8,13-tetrahydrodibenzo[b,f][1,4]dioxecin-4-carbonyl)-6,9-dioxa-3,12-diazatetradecane-1,2,13,14-tetracarboxylic acid hydrochloride] |  |  |  |  |  |  |  |  |  | AUC (in vivo): ≤ 100 ng·h/mL |
| N=C(N)Nc1ccc2c(c1)CCCOc1c(cccc1C(=O)N(CCOCCN(C(=O)c1cccc3c1OCCCc1cc(NC(=N)N)ccc1C(=O)O3)[C@@H](CC(=O)O)C(=O)O)[C@@H](CC(=O)O)C(=O)O)OC2=O [26-(b), (2S,2′S)-2,2′-((oxybis(ethane-2,1-diyl))bis((10-guanidino-13-oxo-6,7,8,13-tetrahydrodibenzo[b,f][1,4]dioxecin-4-carbonyl)azanediyl))disuccinic acid] | ≥ 50% | ≥ 50% |  | ≥ 50% | ≥ 50% |  | ≤ 100 ng·h/mL | ≥ 130% | ≥ 4% |  |

Further lines, with some results ahead:

| inhibition at 0.001 µM [1, 4] | inhibition at 0.01 µM [1, 5] | inhibition at 0.1 µM [1, 6] | inhibition at 0.001 µM [3] | inhibition at 0.01 µM [3] | inhibition at 0.1 µM [3] | AUC ([2]; 10 mg/kg) | SMILES | response vs control in vivo at 50 mg/kg (HFD-fed mouse) | inhibition in vivo at 50 mg/kg (DIO mouse) | other results |
| --- | --- | --- | --- | --- | --- | --- | --- | --- | --- | --- |
| ≥ 50% | ≥ 50% | ≥ 50% |  | ≥ 50% | ≥ 50% |  | N=C(N)Nc1ccc2c(c1)CCCOc1c(cccc1C(=O)N(CCOCCOCCOCCN(C(=O)c1cccc3c1OCCCc1cc(NC(=N)N)ccc1C(=O)O3)[C@@H](CC(=O)O)C(=O)O)[C@@H](CC(=O)O)C(=O)O)OC2=O [27-(b), (2S,165)-3,15-bis(10-guanidino-13-oxo-6,7,8,13-tetrahydrodibenzo[b,f][1,4]dioxecin-4-carbonyl)-6,9,12-trioxa-3,15-diazaheptadecane-1,2,16,17-tetracarboxylic acid] | ≥ 130% | ≥ 4% |  |
| ≥ 50% | ≥ 50% | ≥ 50% |  | ≥ 50% | ≥ 50% | ≤ 100 ng·h/mL | N=C(N)Nc1ccc2c(c1)CCCOc1c(cccc1C(=O)N(Cc1cccc(-c3cccc(CN(C(=O)c4cccc5c4OCCCc4cc(NC(=N)N)ccc4C(=O)O5)[C@@H](CC(=O)O)C(=O)O)c3)c1)[C@@H](CC(=O)O)C(=O)O)OC2=O [28-(c)] | ≥ 130% | ≥ 4% |  |
| ≥ 50% | ≥ 50% | ≥ 50% |  |  | ≥ 50% | ≤ 100 ng·h/mL | Cl.N=C(N)Nc1ccc2c(c1)CCCOc1c(cccc1C(=O)N(Cc1cc(OCCOCCOc3cc(CN(C(=O)c4cccc5c4OCCCc4cc(NC(=N)N)ccc4C(=O)O5)[C@@H](CC(=O)O)C(=O)O)cc(C(=O)O)c3)cc(C(=O)O)c1)[C@@H](CC(=O)O)C(=O)O)OC2=O [29-(c), (2S,2′S)-2,2′-(((((oxybis(ethane-2,1-diyl))bis(oxy))bis(3-carboxy-5,1-phenylene))bis(methylene))bis((10-guanidino-13-oxo-6,7,8,13-tetrahydrodibenzo[b,f][1,4]dioxecin-4-carbonyl)azanediyl))disuccinic acid hydrochloride] | ≥ 130% | ≥ 4% |  |
